From publication PMC11649115, “In vitro safety evaluation of dopamine D3R antagonist, R-VK4-116, as a potential medication for the treatment of opioid use disorder” (PLOS ONE, 2024)

Experiments:
[1] = biological target: T1, OATP1B1 (Homo sapiens, UniProt Q9Y6L6); assay: Transporter mediated assay (substrate/inhibitor), MDCK-II cells; format: in vitro ADME
T1 construct: expressed in transfected cells; host or cells: MDCK-II cells
T1 sequence (Q9Y6L6 1-691): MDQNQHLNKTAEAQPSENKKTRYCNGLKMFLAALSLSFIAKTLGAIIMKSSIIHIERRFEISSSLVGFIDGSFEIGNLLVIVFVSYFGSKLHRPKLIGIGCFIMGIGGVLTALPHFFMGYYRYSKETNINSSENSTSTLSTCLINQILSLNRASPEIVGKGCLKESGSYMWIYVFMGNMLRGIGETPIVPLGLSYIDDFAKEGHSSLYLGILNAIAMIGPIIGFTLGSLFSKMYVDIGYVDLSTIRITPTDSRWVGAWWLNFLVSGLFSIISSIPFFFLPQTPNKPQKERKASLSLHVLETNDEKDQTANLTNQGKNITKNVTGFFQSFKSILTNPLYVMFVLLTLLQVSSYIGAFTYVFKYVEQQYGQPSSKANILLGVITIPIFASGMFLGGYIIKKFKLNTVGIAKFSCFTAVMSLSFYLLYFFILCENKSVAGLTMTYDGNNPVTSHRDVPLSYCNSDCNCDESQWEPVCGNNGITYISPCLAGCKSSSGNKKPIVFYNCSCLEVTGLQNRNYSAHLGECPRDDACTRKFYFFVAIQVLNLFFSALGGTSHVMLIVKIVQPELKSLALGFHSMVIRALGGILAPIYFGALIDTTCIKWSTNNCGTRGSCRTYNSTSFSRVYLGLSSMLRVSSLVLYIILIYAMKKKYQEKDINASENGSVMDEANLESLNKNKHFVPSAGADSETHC
Method: (§1) The MDCK-II cells were treated to express the transporter of interest. The transport of each probe substrate was determined by radiometric detection (Fig 1 in S1 File). […] For the uptake assay, the net transporter-mediated uptake-rate (V) of the substrate by each SLC transporter was calculated as follows: Transporter–mediatedupdaterate(pmol/min/cm^2)=(Cellularaccumulationincellsexpressingthetransporter)−(Meancellularaccumulationincontrolcells)/Surfacearea×incubationtime
(§2) Fold of activity and percent inhibition were determined as follows: Foldofactivity=(Meanuptakerate)transporterexpressingcells/(Meanuptakerate)controlcells Percentinhibition=100−100×(Transport‐mediatedupdaterate)withinhibitor/(Transport‐mediatedupdaterate)vehiclecontrol

[2] = biological target: T2, OATP1B3 (Homo sapiens, UniProt Q9NPD5); assay: as above; format: in vitro ADME
T2 construct: expressed in transfected cells; host or cells: MDCK-II cells
T2 sequence (Q9NPD5 1-702): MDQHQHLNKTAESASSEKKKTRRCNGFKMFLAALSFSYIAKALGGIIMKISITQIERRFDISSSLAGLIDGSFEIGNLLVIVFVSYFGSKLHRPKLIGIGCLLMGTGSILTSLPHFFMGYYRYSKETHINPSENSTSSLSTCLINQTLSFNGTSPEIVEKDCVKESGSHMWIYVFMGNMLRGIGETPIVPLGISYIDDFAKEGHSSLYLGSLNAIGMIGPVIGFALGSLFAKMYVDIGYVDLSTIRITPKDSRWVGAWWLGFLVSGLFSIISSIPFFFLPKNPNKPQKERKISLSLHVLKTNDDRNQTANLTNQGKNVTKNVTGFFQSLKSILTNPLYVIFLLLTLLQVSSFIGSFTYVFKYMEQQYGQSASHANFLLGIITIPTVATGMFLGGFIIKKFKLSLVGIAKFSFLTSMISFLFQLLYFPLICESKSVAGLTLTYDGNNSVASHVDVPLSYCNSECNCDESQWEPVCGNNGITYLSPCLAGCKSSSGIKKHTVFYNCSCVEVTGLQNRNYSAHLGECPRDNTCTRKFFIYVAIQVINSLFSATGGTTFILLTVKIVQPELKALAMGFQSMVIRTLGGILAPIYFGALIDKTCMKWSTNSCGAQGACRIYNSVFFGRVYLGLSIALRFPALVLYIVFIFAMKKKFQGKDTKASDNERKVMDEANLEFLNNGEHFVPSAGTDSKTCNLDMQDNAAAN
Method: as §1, §2

[3] = biological target: T3, BCRP (Homo sapiens, UniProt Q9UNQ0); assay: as above; format: in vitro ADME
T3 construct: expressed in transfected cells; host or cells: MDCK-II cells
T3 sequence (Q9UNQ0 1-655): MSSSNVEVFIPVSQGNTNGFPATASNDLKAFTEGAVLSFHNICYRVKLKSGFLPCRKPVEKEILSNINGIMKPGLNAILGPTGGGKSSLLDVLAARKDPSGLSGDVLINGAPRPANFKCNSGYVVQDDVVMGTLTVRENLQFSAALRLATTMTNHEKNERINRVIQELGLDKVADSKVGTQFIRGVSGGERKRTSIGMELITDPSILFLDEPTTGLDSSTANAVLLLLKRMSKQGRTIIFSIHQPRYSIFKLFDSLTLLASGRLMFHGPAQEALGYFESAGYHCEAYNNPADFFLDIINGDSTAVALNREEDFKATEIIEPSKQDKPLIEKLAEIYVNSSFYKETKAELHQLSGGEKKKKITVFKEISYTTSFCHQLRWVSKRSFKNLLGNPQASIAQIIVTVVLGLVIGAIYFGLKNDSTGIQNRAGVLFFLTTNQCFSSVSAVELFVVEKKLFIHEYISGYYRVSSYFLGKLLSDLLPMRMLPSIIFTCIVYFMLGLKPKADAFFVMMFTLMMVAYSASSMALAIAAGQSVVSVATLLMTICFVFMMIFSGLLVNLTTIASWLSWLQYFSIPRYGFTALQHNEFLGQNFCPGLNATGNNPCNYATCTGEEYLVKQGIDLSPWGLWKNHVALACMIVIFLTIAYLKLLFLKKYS
Method: The MDCK-II cells were treated to express the transporter of interest.
For BCRP and P-gp, the apparent permeability Papp and Efflux Ratio (ER) were calculated [16]. Net basal (B) to apical (A) flux (B → A) of the substrate transport (pmol/min/cm^2) by BCRP or P-gp was calculated by subtracting A → B flux from B → A flux.

[4] = test system: CYP2B6; assay: CYP induction, in situ catalytic activity, human hepatocytes
From the text: Rifampicin as a positive control and solvent (0.1% DMSO) vehicle control were also included. The acceptance criteria for CYP induction was ≥ 2-fold induction for significant CYP activity, while the acceptance criteria for CYP mRNA was ≥ 4-fold for significant CYP induction.

Compound: CCc1cc(Cl)c(OC)c(N2CCN(CC(O)CCNC(=O)c3cc4ccccc4[nH]3)CC2)c1 (stereo not shown) [R-VK4-116, N-(4-(4-(3-chloro-5-ethyl-2-methoxyphenyl)piperazin-1-yl)-3-hydroxybutyl)-1H-indole-2-carboxamide]
- fold difference in mean uptake rate (substrate test) ([1]; OATP1B1, 1 μM, transporter cells vs control cells): < 2 fold
- Inhibition (%) ([1]; OATP1B1, 0.1% BSA, 10 μM): no statistically significant inhibition
- inhibition at 10 µM ([1]; human, polarized monolayer of MDCK-II cells expressing OATP1B1, OATP1B1, 0.1% BSA, 10 μM): 5.5 ± 17.3%
- fold difference in mean uptake rate (substrate test) ([2]; OATP1B3, 1 μM, transporter cells vs control cells): < 2 fold
- Inhibition (%) ([2]; OATP1B3, 0.1% BSA, 10 μM): no statistically significant inhibition
- inhibition at 10 µM ([2]; human, polarized monolayer of MDCK-II cells expressing OATP1B3, OATP1B3, 0.1% BSA, 10 μM): 5.29 ± 10.7%
- Papp A→B at 1 µM ([3]; BCRP, substrate test, 1 µM): < 0.2 ×10⁻⁶ cm/s
- Papp B→A at 1 µM ([3]; BCRP, substrate test, 1 µM): < 0.1 ×10⁻⁶ cm/s
- inhibition at 10 µM ([3]; probe prazosin 2 μM): 54 ± 1.46%
- Fold of Vehicle Control (CYP2B6 activity, bupropion hydroxylation) ([4]; hepatocyte Lot 336, 0.01 µM): 1.2 fold
- Fold of Vehicle Control (CYP2B6 activity, bupropion hydroxylation) ([4]; hepatocyte Lot 336, 0.1 µM): 1.1 fold
- Fold of Vehicle Control (CYP2B6 activity, bupropion hydroxylation) ([4]; hepatocyte Lot 336, 1 µM): 1.1 fold
- Fold of Vehicle Control (CYP2B6 activity, bupropion hydroxylation) ([4]; hepatocyte Lot 336, 3 µM): 1.1 fold
- Fold of Vehicle Control (CYP2B6 activity, bupropion hydroxylation) ([4]; hepatocyte Lot 336, 5 µM): 1.1 fold
- Bupropion Hydroxylation ([4]; hepatocyte Lot 336, 10 µM): 0.97 pmol/min/106 cells
- Fold of Vehicle Control (CYP2B6 activity, bupropion hydroxylation) ([4]; hepatocyte Lot 336, 10 µM): 1.1 fold
- Bupropion Hydroxylation ([4]; hepatocyte Lot 348B, 0.01 µM): 5.0 pmol/min/106 cells
- Fold of Vehicle Control (CYP2B6 activity, bupropion hydroxylation) ([4]; hepatocyte Lot 348B, 0.01 µM): 1.1 fold
- Bupropion Hydroxylation ([4]; hepatocyte Lot 348B, 0.1 µM): 4.5 pmol/min/106 cells
- Fold of Vehicle Control (CYP2B6 activity, bupropion hydroxylation) ([4]; hepatocyte Lot 348B, 0.1 µM): 1.0 fold
- Bupropion Hydroxylation ([4]; hepatocyte Lot 348B, 1 µM): 4.5 pmol/min/106 cells
- Fold of Vehicle Control (CYP2B6 activity, bupropion hydroxylation) ([4]; hepatocyte Lot 348B, 1 µM): 1.0 fold
- Bupropion Hydroxylation ([4]; hepatocyte Lot 348B, 3 µM): 4.1 pmol/min/106 cells
- Fold of Vehicle Control (CYP2B6 activity, bupropion hydroxylation) ([4]; hepatocyte Lot 348B, 3 µM): 0.94 fold
- Bupropion Hydroxylation ([4]; hepatocyte Lot 348B, 5 µM): 3.8 pmol/min/106 cells
- Fold of Vehicle Control (CYP2B6 activity, bupropion hydroxylation) ([4]; hepatocyte Lot 348B, 5 µM): 0.85 fold
- Bupropion Hydroxylation ([4]; hepatocyte Lot 348B, 10 µM): 3.9 pmol/min/106 cells
- Fold of Vehicle Control (CYP2B6 activity, bupropion hydroxylation) ([4]; hepatocyte Lot 348B, 10 µM): 0.89 fold
- Fold of Vehicle Control (CYP2B6 activity, bupropion hydroxylation) ([4]; hepatocyte Lot 399, 0.01 µM): 1.0 fold
- Fold of Vehicle Control (CYP2B6 activity, bupropion hydroxylation) ([4]; hepatocyte Lot 399, 0.1 µM): 1.0 fold
- Fold of Vehicle Control (CYP2B6 activity, bupropion hydroxylation) ([4]; hepatocyte Lot 399, 1 µM): 1.1 fold
- Fold of Vehicle Control (CYP2B6 activity, bupropion hydroxylation) ([4]; hepatocyte Lot 399, 3 µM): 1.2 fold
- Fold of Vehicle Control (CYP2B6 activity, bupropion hydroxylation) ([4]; hepatocyte Lot 399, 5 µM): 1.1 fold
- Fold of Vehicle Control (CYP2B6 activity, bupropion hydroxylation) ([4]; hepatocyte Lot 399, 10 µM): 1.1 fold
